According to patent publication US4425432A (priority 1981, dated 1984):
Where two headings read alike, the source gives them in different places.

How the values were obtained:
Clostridium pasteurianum = test: microbe, parasite or virus in culture; format: cell-based
Marburg strain = test: microbe, parasite or virus in culture; format: cell-based, Butyribacterium methylotrophicum
[1] = Clostridium pasteurianum, 1 h, read-out: % Inhibition of growth, Clostridium pasteurianum
[2] = [Butyribacterium] methylotrophicum, 192 h, read-out: % Inhibition of growth, Marburg strain

Structure (SMILES)	inhibition at 100 µg/mL (Clostridium pasteurianum; [1]) [%]	inhibition at 100 µg/mL (Marburg strain; [2]) [%]	sensitivity of the Marburg strain (B. methylotrophicum) to antibiotics and inhibitors, in words (Marburg strain)	other results
O=C(N[C@H](CO)[C@H](O)c1ccc([N+](=O)[O-])cc1)C(Cl)Cl [Chloramphenicol]	100	100		
O=O [Oxygen]			effective inhibitor of growth	% Inhibition of growth, Clostridium pasteurianum (Clostridium pasteurianum): 100%; % Inhibition of growth, Marburg strain (Marburg strain): 100%
CC1(C)S[C@@H]2[C@H](NC(=O)Cc3ccccc3)C(=O)N2[C@H]1C(=O)O [Penicillin]	100	100		
[N-]=[N+]=[N-] [Sodium azide]			noticeably more tolerant	inhibition at 50 µg/mL (Clostridium pasteurianum; [1]): 100%; inhibition at 250 µg/mL (Clostridium pasteurianum; [1]): 93%; inhibition at 50 µg/mL (Marburg strain; [2]): 0%; inhibition at 250 µg/mL (Marburg strain; [2]): 0%
[Cl-].[Na+] [Sodium chloride]			noticeably more tolerant	% Inhibition of growth, Clostridium pasteurianum (Clostridium pasteurianum; 2%): 73%; % Inhibition of growth, Marburg strain (Marburg strain; 2%): 0%
[H]/N=C(/N)N[C@H]1[C@H](O)[C@@H](O)[C@H](O[C@@H]2O[C@@H](C)[C@](O)(C=O)[C@H]2O[C@@H]2O[C@@H](CO)[C@H](O)[C@@H](O)[C@@H]2NC)[C@@H](N/C(N)=N\[H])[C@@H]1O [Streptomycin]	100	80		
CN(C)C1C(=O)C(C(N)=O)=C(O)C2(O)C(=O)C3=C(O)c4c(O)cccc4C(C)(O)C3CC12 (stereo not shown) [Tetracycline]	100	100		
